How the values were obtained:
Human Platelet PDE IIIc = biological target: T1, Human Platelet PDE IIIc (Homo sapiens, UniProt Q14432); test: Inhibition of phosphodiesterase type IIIc (3H-cAMP hydrolysis), human platelet enzyme; assay type: biochemical; details: pH 7.1, 1.2 µM 3H-cAMP, 10 min at 37°C; IC50 calculated graphically
T1 construct: canine heart and human platelet phosphodiesterase PDE IIIc; from tissue; host or cells: human platelets
Method: The incubation mixture (pH 7.1) (200 »l) contained 50mM 4-morpholinopropanesulfonic acid (MOPS), 1mM ethylenebis(oxyethylenenitrilo)tetraacetic acid (EGTA), 6 mM magnesium chloride, 0.25 mg/ml bovine serum albumin, 1.2 »M ³H-cAMP (310 mCi/mmole) and the phosphodiesterase type IIIc, and was prepared by dilution with water of a stock solution of MOPS, EGTA, MgCl₂, BSA and ³H-cAMP (50 »l) and 2 to 50 »l of a solution of phosphodiesterase type IIIc, depending on the enzymatic activity. […] When the effect of different compounds on phosphodiesterase activity was tested, the medium without cAMP was incubated with the compound(s) or its carrier (DMSO - 1% final concentration) for 5 min. The enzymatic reaction was started by addition of ³H-cAMP and stopped 10 min later after transferring the tubes in a waterbath at 100°C for 40 sec. After cooling to room temperature, alkaline phosphatase (0.25 »g/ml) was added and the mixture was left at room temperature for 20 min. The mixture was subsequently applied to a 1 ml DEAE-Sephadex A-25 column (pasteur pipet) and washed twice with 3 ml 20 mM Tris-HCl at pH 7.4. The ³H-labelled reaction products in the eluate were quantified by liquid scintillation counting. The inhibiting effect of the present compounds on canine heart and human platelet phosphodiesterase PDE IIIc was measured at different concentrations of the instant compounds. The IC₅₀ values were calculated graphically from the thus obtained inhibition values.

mongrel dogs [1] = test: Haemodynamic variables in dogs after cumulative intravenous bolus administration; assay type: in vivo; details: maximum end-dose 0.16 mg kg-1 (comp. 14: 0.08 mg kg-1)
Method: Compound (9) was dissolved in 20% hydroxypropyl beta cyclodextrine ether slightly acidified with 1N HCl, in a concentration of 1mg.ml⁻¹ (pH 5.5). The experiments were performed on 7 mongrel dogs of either sex and varying age, ranging in body weight from 27 to 33 kg (median 30 kg). The animals were intravenously anaesthetized with a mixture of 0.015 mg.kg⁻¹ scopolamine and 0.05 mg.kg⁻¹ lofentanil. The animals were intubated with a cuffed endotracheal tube. Intermittent positive pressure ventilation was performed with a mixture of pressurized air and oxygen (60/40), using a volumecontrolled ventilator (Siemens Elema). In the control period the CO₂ concentration in the expired air (ET CO₂), as determined with a capnograph (Gould Godart), was kept at 5 vol% by adjustment of the respiratory volume (resp. rate = 20 breaths.min⁻¹). A continous intravenous infusion of 0.5 mg.kg⁻¹.h⁻¹ of etomidate was started immediately after induction. Body temperature was monitored with a thermistor positioned in the pulmonary artery. To prevent blood clotting heparine, 1000 IU.kg⁻¹ iv., was administered. The electrocardiogram (ECG) was derived from limb leads (standard lead 2). Left ventricular (LVP) and ascending aortic blood pressure (AoP) were measured by retrograde catheterisation via the femoral […] with high fidelity cathetertip micromanometers (Honeywell). The other femoral vein was cannulated for injection of saline at room temperature into the right atrium and for injection of compound (9). Peak ascending aortic blood flow velocity was measured through the right carotid artery with an electomagnetic catheter-tip probe connected to a square wave electomagnetic flow meter (Janssen Scientific Instruments). The following variables -inter alia- were calculated on-line, usually at 1 min intervals: heart rate (HR), diastolic (AoPd) aortic blood pressure, left ventricular end-diastolic pressure (LVEDP), the maximum positive and maximum negative rate of change of isovolumic LVP (LV dp/dt max and min, respectively), the maximum positive first derivative divided by the actually developed pressure in the left ventricle (LV dp/dtmax/Pd). The time constant (T) of relaxation was measured with the use of an exponential analysis that also estimated the asymptote. […] In the wash-out period the effects were followed for 75 min. […]

mongrel dogs [2] = test: Positive inotropy and lusitropy, blood pressure and heart rate in anaesthetized dogs, slow intravenous infusion; assay type: in vivo; details: for cardiac output / heart rate: slow iv infusion over 120 min
Method: The positive inotropic and lusitropic effect of the instant compounds were assessed by an in vitro assay system to detect inhibiting effect on the phosphodiesterase type IIIc and in an in vivo experiment in closed-chest anaestetized dogs by monitoring cardiac and haemodynamic effects of an intravenous infusion of the instant compounds.
Compound (9) was dissolved in 20% hydroxypropyl beta cyclodextrine ether slightly acidified with 1N HCl, in a concentration of 1mg.ml⁻¹ (pH 5.5). The experiments were performed on 7 mongrel dogs of either sex and varying age, ranging in body weight from 27 to 33 kg (median 30 kg). The animals were intravenously anaesthetized with a mixture of 0.015 mg.kg⁻¹ scopolamine and 0.05 mg.kg⁻¹ lofentanil. The animals were intubated with a cuffed endotracheal tube. Intermittent positive pressure ventilation was performed with a mixture of pressurized air and oxygen (60/40), using a volumecontrolled ventilator (Siemens Elema). In the control period the CO₂ concentration in the expired air (ET CO₂), as determined with a capnograph (Gould Godart), was kept at 5 vol% by adjustment of the respiratory volume (resp. rate = 20 breaths.min⁻¹). A continous intravenous infusion of 0.5 mg.kg⁻¹.h⁻¹ of etomidate was started immediately after induction. Body temperature was monitored with a thermistor positioned in the pulmonary artery. To prevent blood clotting heparine, 1000 IU.kg⁻¹ iv., was administered. The electrocardiogram (ECG) was derived from limb leads (standard lead 2). Left ventricular (LVP) and ascending aortic blood pressure (AoP) were measured by retrograde catheterisation via the femoral […] with high fidelity cathetertip micromanometers (Honeywell). The other femoral vein was cannulated for injection of saline at room temperature into the right atrium and for injection of compound (9). Peak ascending aortic blood flow velocity was measured through the right carotid artery with an electomagnetic catheter-tip probe connected to a square wave electomagnetic flow meter (Janssen Scientific Instruments). The following variables -inter alia- were calculated on-line, usually at 1 min intervals: heart rate (HR), diastolic (AoPd) aortic blood pressure, left ventricular end-diastolic pressure (LVEDP), the maximum positive and maximum negative rate of change of isovolumic LVP (LV dp/dt max and min, respectively), the maximum positive first derivative divided by the actually developed pressure in the left ventricle (LV dp/dtmax/Pd). The time constant (T) of relaxation was measured with the use of an exponential analysis that also estimated the asymptote. After a recorded control period of 20 min the intravenous infusion of compound (9) was started at a rate of […]. In the wash-out period the effects were followed for 75 min. […] These positive inotropic and lusitropic, and vasodilatory effects of the compound (9) are long-lasting, since the changes in the variables last for more than 75 min after stopping the infusion of a total dose of 0.60 mg.kg⁻¹. […]

[3] = slow infusion (0.005 mg kg-1 min-1) for two hours

T1 sequence (Q14432 whole entry): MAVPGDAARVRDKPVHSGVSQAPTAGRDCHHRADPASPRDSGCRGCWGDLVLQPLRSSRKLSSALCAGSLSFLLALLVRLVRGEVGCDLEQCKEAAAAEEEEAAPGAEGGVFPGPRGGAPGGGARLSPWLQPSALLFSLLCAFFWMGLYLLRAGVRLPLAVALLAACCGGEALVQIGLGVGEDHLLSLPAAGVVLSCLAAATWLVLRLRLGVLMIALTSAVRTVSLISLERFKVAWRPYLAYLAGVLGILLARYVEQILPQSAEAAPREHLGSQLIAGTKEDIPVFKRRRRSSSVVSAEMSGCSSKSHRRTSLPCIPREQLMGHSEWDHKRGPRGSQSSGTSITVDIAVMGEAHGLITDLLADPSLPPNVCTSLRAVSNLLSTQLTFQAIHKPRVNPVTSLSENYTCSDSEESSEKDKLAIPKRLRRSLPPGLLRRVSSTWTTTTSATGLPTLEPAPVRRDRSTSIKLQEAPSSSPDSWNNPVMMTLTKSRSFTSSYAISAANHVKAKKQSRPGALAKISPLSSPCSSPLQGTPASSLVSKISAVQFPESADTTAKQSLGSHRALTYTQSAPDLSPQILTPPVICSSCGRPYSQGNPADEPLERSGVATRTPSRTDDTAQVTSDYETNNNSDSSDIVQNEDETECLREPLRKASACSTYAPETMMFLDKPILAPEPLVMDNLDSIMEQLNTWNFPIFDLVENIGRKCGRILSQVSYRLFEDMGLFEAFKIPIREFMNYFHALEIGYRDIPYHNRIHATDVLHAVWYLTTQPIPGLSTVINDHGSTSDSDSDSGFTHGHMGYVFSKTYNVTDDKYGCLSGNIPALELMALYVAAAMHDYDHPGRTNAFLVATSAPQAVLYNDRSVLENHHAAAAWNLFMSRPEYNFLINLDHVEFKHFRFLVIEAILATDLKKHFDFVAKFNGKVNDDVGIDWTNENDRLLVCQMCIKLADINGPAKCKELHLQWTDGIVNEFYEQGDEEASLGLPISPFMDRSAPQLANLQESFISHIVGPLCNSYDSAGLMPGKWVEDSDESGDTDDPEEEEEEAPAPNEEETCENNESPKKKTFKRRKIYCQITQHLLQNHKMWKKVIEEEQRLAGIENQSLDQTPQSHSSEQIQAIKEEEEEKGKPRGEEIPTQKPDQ

In the case of O=C1CN2Cc3cc(C(=NO)c4ccccc4)ccc3N=C2N1 [compound 2, (E+Z)-3,5-dihydro-7-[(hydroxyimino)phenylmethyl]imidazo[2,1-b]quinazolin-2(1H)-one], the IC50 (Human Platelet PDE IIIc) is reported as 190 nM, the “% changes in haemodynamic variables: AoPd (diastolic aortic blood pressure)” value (“% changes … (diastolic aortic blood pressure)” for short) (mongrel dogs [1]) is reported as -10% and the “% changes in haemodynamic variables: HR (heart rate)” value (from here on “% changes … (heart rate)”) (mongrel dogs [1]) is reported as 15%. For the same compound, the “% changes in haemodynamic variables: LVdp/dtmax/Pd (positive inotropic effect)” value (mongrel dogs [1]) was 102% and the “% changes in haemodynamic variables: T (time constant of relaxation, positive lusitropy)” value (“% changes in haemodynamic variables: T” for short) (mongrel dogs [1]) was -38%.
In the case of O=C1CN2Cc3cc(/C(=N/O)c4ccccc4)ccc3N=C2N1 [compound 3, (E)-3,5-dihydro-7-[(hydroxyimino)phenylmethyl]imidazo[2,1-b]quinazolin-2(1H)-one], the IC50 (Human Platelet PDE IIIc) is reported as 190 nM, the cardiac output (mongrel dogs [2]; anaesthetized mongrel dogs) is reported as “increase in cardiac output” and the heart rate (mongrel dogs [2]; anaesthetized mongrel dogs) is reported as “without changing the heart rate”. For the same compound, the “cardiac inotropy and lusitropy” value (mongrel dogs [2]; [3]) was “dose-related increase”, the “duration of effects after stopping the infusion” value (mongrel dogs [2]; [3]) was “more than 90 minutes” and the systemic vasodilation (mongrel dogs [2]; [3]) was “dose-related systemic vasodilation”.
In the case of CCOC(=O)CON=C(c1ccccc1)c1ccc2c(c1)CN1CC(=O)NC1=N2 [compound 6], the IC50 (Human Platelet PDE IIIc) is reported as 380 nM, the “% changes … (diastolic aortic blood pressure)” value (mongrel dogs [1]) is reported as -13% and the “% changes … (heart rate)” value (mongrel dogs [1]) is reported as 9%. For the same compound, the “% changes in haemodynamic variables: LVdp/dtmax/Pd (positive inotropic effect)” value (mongrel dogs [1]) was 31% and the “% changes in haemodynamic variables: T” value (mongrel dogs [1]) was -15%.
With CN(C(=O)CON=C(c1ccccc1)c1ccc2c(c1)CN1CC(=O)NC1=N2)C1CCCCC1 [compound 8] the IC50 (Human Platelet PDE IIIc) was 58 nM, the “% changes … (diastolic aortic blood pressure)” value (mongrel dogs [1]) was 0% and the “% changes … (heart rate)” value (mongrel dogs [1]) was 0%. For the same compound, the “% changes in haemodynamic variables: LVdp/dtmax/Pd (positive inotropic effect)” value (mongrel dogs [1]) was 29% and the “% changes in haemodynamic variables: T” value (mongrel dogs [1]) was -45%.
For CN(C(=O)CO/N=C(\c1ccccc1)c1ccc2c(c1)CN1CC(=O)NC1=N2)C1CCCCC1 [compound 9, (E)-N-cyclohexyl-N-methyl-2-[[[phenyl(1,2,3,5-tetrahydro-2-oxoimidazo[2,1-b]quinazolin-7-yl)methylene]amino]oxy]acetamide], the IC50 (Human Platelet PDE IIIc) was 25 nM, the “variables related to cardiac performance (LV dp/dtmax, LV dp/dtmax/Pd)” value (mongrel dogs [2]; 7 anaesthetized mongrel dogs, iv infusion over 120 min, starting after 10 min of infusion (0.05 mg.kg-1 total dose)) was “pronounced and significant increase” and the “left ventricular end-diastolic pressure (preload)” value (mongrel dogs [2]; anaesthetized mongrel dogs, iv infusion over 120 min) was “no change or even a slight decrease”. The “time constant of relaxation” value (mongrel dogs [2]; anaesthetized mongrel dogs, iv infusion, starting after 10 min of infusion (0.05 mg.kg-1 total dose)) was “significant decrease”, the “Systemic and pulmonary peripheral vascular resistance” value (mongrel dogs [2]; anaesthetized mongrel dogs, iv infusion, starting after 20 min of infusion (0.10 mg.kg-1 total dose)) was “decrease significantly” and the cardiac output (mongrel dogs [2]; anaesthetized mongrel dogs) was “concomitant increase in cardiac output”. The heart rate (mongrel dogs [2]; anaesthetized mongrel dogs) was “no change in heart rate” and the “duration of the changes in the variables after stopping the infusion” value (mongrel dogs [2]; positive inotropic, lusitropic and vasodilatory effects, total dose of 0.60 mg.kg-1) was “more than 75 min”.
CN(C(=O)CO/N=C(/c1ccccc1)c1ccc2c(c1)CN1CC(=O)NC1=N2)C1CCCCC1 [compound 10, (Z)-N-cyclohexyl-N-methyl-2-[[[phenyl(1,2,3,5-tetrahydro-2-oxoimidazo[2,1-b]quinazolin-7-yl)methylene]amino]-oxy]acetamide] was tested, and the IC50 (Human Platelet PDE IIIc) was 140 nM, the “% changes … (diastolic aortic blood pressure)” value (mongrel dogs [1]) was -5% and the “% changes … (heart rate)” value (mongrel dogs [1]) was 0%. The “% changes in haemodynamic variables: LVdp/dtmax/Pd (positive inotropic effect)” value (mongrel dogs [1]) was 18% and the “% changes in haemodynamic variables: T” value (mongrel dogs [1]) was -13%.
With COc1ccc(C(=O)c2ccc3c(c2)CN2CC(=O)NC2=N3)cc1 [compound 12] the “% changes … (diastolic aortic blood pressure)” value (mongrel dogs [1]) was 0%, the “% changes … (heart rate)” value (mongrel dogs [1]) was 10% and the “% changes in haemodynamic variables: LVdp/dtmax/Pd (positive inotropic effect)” value (mongrel dogs [1]) was 57.5%. For the same compound, the “% changes in haemodynamic variables: T” value (mongrel dogs [1]) was -10%.
With COc1ccc(C(=NO)c2ccc3c(c2)CN2CC(=O)NC2=N3)cc1 [compound 13] the “% changes … (diastolic aortic blood pressure)” value (mongrel dogs [1]) was 0%, the “% changes … (heart rate)” value (mongrel dogs [1]) was -10% and the “% changes in haemodynamic variables: LVdp/dtmax/Pd (positive inotropic effect)” value (mongrel dogs [1]) was 45%. For the same compound, the “% changes in haemodynamic variables: T” value (mongrel dogs [1]) was -27%.
For O=C1CN2Cc3cc(C(=O)c4ccc(F)cc4)ccc3N=C2N1 [compound 14], the IC50 (Human Platelet PDE IIIc) was 520 nM, the “% changes … (diastolic aortic blood pressure)” value (mongrel dogs [1]) was 0% and the “% changes … (heart rate)” value (mongrel dogs [1]) was 5%. For the same compound, the “% changes in haemodynamic variables: LVdp/dtmax/Pd (positive inotropic effect)” value (mongrel dogs [1]) was 35% and the “% changes in haemodynamic variables: T” value (mongrel dogs [1]) was -16%.
COc1ccc(C(=O)c2ccc3c(c2)CN2CC(=O)NC2=N3)cc1OC [compound 24] gave an IC50 (Human Platelet PDE IIIc) of 340 nM.
For CCOC(=O)C=C(c1ccccc1)c1ccc2c(c1)CN1CC(=O)NC1=N2 [compound 32], the IC50 (Human Platelet PDE IIIc) was 84 nM.
